Here are results for one compound from ChEMBL document CHEMBL1127961, “Antineoplastic agents 315. Isolation and structure of the marine sponge cancer cell growth inhibitor phakellistatin 5” (1994).

“And” between values parts separate entries of the source, which are not always exact repeats. Identical values can stand only once.

This assay deals with NCI. The experiment in a line: Antineoplastic activity against NCI human leukemia cancer cell line. It counts as functional.

On to `CC[C@H](C)[C@@H]1NC(=O)C(C)NC(=O)[C@H](CCSC)NC(=O)C(C)NC(=O)[C@H](CC(N)=O)NC(=O)[C@H](Cc2ccccc2)NC(=O)C2CCCN2C1=O` (single isomer, unassigned) [PHAKELLI STATIN 5], for which the GI50 was 3 µM and 0.6 µM.

What is called GI50 is the concentration that inhibits growth by half.
